From patent US9655884B2, “Antiparasitic use of isoxazoline compounds” (Intervet Inc., priority 2013, dated 2017)

System: adult fleas (C. felis)
Test: In vitro membrane feeding exposure to assess flea reproduction
Parameters: species or system Ctenocephalides felis
Conditions: for Pupal Development Control / Larval Emergence: eggs of parent fleas fed 0.09 ng/mL in blood
Experimental: A membrane feeding method [Wade S E, Georgi J R. Survival and reproduction of artificially fed cat fleas, Ctenocephalides felis Bouché (Siphonaptera: Pulicidae). J Med Entomol 1988, 25: 186-190.] was modified to assess the impact of fluralaner exposure on flea reproduction. Defibrinated sheep blood was prepared in a series of dilutions with fluralaner to obtain concentrations between 50.0 and 0.09 ng/mL. These test solutions were prepared twice and each preparation was tested in duplicate resulting in a total of 4 replicates per concentration, along with a fluralaner negative solvent control (a solvent concentration equivalent to that of the highest concentrated fluralaner test solution) and an untreated control.
Unfed adult fleas (C. felis; 20 males and 20 females) were placed into a plastic unit that was then closed with a gauze lid. A grid inside the plastic unit divided the unit into 2 chambers, an upper chamber for flea feeding and a lower chamber for egg collection. Test or control blood preparations (2 ml) were placed in an artificial membrane closed glass tube that was then placed on the plastic unit as the food source. Feeding units were incubated (38° C. and 60% RH) for 10 days. Test and negative control blood preparations were freshly prepared and exchanged (on days 1, 3, 5, and 8) to permit continuous flea feeding. Fleas were transferred into fresh plastic units on Days 5 and 8 to facilitate egg collection. Collected eggs were mixed with flea nourishment medium and incubated (28° C. and 80% RH) in darkness for 22 (±3) days to enable flea development. Parameters recorded were flea survival, oviposition control, egg hatchability, pupa control, flea-emergence control and reproduction inhibition.

[1] = 0.09 ng/mL in blood, exposure day 3
[2] = 0.09 ng/mL in blood, exposure day 4
[3] = 0.09 ng/mL in blood, exposure day 5
[4] = 0.09 ng/mL in blood, exposure day 8
[5] = 0.09 ng/mL in blood, exposure day 9
[6] = 0.09 ng/mL in blood, exposure day 10
[7] = 0.19 ng/mL in blood, exposure day 3
[8] = 0.19 ng/mL in blood, exposure day 4
[9] = 0.19 ng/mL in blood, exposure day 5
[10] = 0.19 ng/mL in blood, exposure day 8
[11] = 0.19 ng/mL in blood, exposure day 9
[12] = 0.19 ng/mL in blood, exposure day 10
[13] = 0.39 ng/mL in blood, exposure day 3
[14] = 0.39 ng/mL in blood, exposure day 4
[15] = 0.39 ng/mL in blood, exposure day 5
[16] = 0.39 ng/mL in blood, exposure day 8
[17] = 0.39 ng/mL in blood, exposure day 9
[18] = 0.39 ng/mL in blood, exposure day 10
[19] = 0.78 ng/mL in blood, exposure day 3
[20] = 0.78 ng/mL in blood, exposure day 4
[21] = 0.78 ng/mL in blood, exposure day 5
[22] = 0.78 ng/mL in blood, exposure day 8
[23] = 0.78 ng/mL in blood, exposure day 9
[24] = 0.78 ng/mL in blood, exposure day 10
[25] = 1.56 ng/mL in blood, exposure day 3
[26] = 1.56 ng/mL in blood, exposure day 4
[27] = 1.56 ng/mL in blood, exposure day 5
[28] = 1.56 ng/mL in blood, exposure day 8
[29] = 1.56 ng/mL in blood, exposure day 9
[30] = 1.56 ng/mL in blood, exposure day 10
[31] = 3.13 ng/mL in blood, exposure day 3
[32] = 3.13 ng/mL in blood, exposure day 4
[33] = 3.13 ng/mL in blood, exposure day 5
[34] = 3.13 ng/mL in blood, exposure day 8
[35] = 3.13 ng/mL in blood, exposure day 9
[36] = 3.13 ng/mL in blood, exposure day 10
[37] = 6.25 ng/mL in blood, exposure day 3
[38] = 6.25 ng/mL in blood, exposure day 4
[39] = 6.25 ng/mL in blood, exposure day 5
[40] = 6.25 ng/mL in blood, exposure day 8
[41] = 6.25 ng/mL in blood, exposure day 9
[42] = 6.25 ng/mL in blood, exposure day 10
[43] = 12.5 ng/mL in blood, exposure day 3
[44] = 12.5 ng/mL in blood, exposure day 4
[45] = 12.5 ng/mL in blood, exposure day 5
[46] = 12.5 ng/mL in blood, exposure day 8
[47] = 12.5 ng/mL in blood, exposure day 9
[48] = 12.5 ng/mL in blood, exposure day 10
[49] = 25.0 ng/mL in blood, exposure day 3
[50] = 25.0 ng/mL in blood, exposure day 4
[51] = 25.0 ng/mL in blood, exposure day 5
[52] = 50.0 ng/mL in blood, exposure day 3
[53] = 50.0 ng/mL in blood, exposure day 4
[54] = 50.0 ng/mL in blood, exposure day 5

Cc1cc(C2=NOC(c3cc(Cl)cc(Cl)c3)(C(F)(F)F)C2)ccc1C(=O)NCC(=O)NCC(F)(F)F (stereo not shown) [fluralaner, 4-[5-(3,5-Dichlorophenyl)-5-trifluoromethyl-4,5-dihydroisoxazol-3-yl]-2-methyl-N-[(2,2,2-trifluoro-ethylcarbamoyl)-methyl]-benzamide]
Oviposition Control (0.09 ng/mL in blood, arithmetic mean of exposure days): 7.9% | Flea Survival (0.09 ng/mL in blood, exposure day 2): 100% | Flea Survival [1]: 100% | Oviposition Control [1]: 0% | Flea Survival [2]: 100% | Oviposition Control [2]: 11.3% | Flea Survival [3]: 100% | Oviposition Control [3]: 10.9% | Flea Survival [4]: 100% | Oviposition Control [4]: 16.7% | Flea Survival [5]: 100% | Oviposition Control [5]: 0.3% | Flea Survival [6]: 100% | Oviposition Control [6]: 8.1% | Oviposition Control (0.19 ng/mL in blood, arithmetic mean of exposure days): 9.2% | Flea Survival (0.19 ng/mL in blood, exposure day 2): 100% | Flea Survival [7]: 100% | Oviposition Control [7]: 0% | Flea Survival [8]: 100% | Oviposition Control [8]: 5.1% | Flea Survival [9]: 100% | Oviposition Control [9]: 21.0% | Flea Survival [10]: 100% | Oviposition Control [10]: 15.1% | Flea Survival [11]: 100% | Oviposition Control [11]: 0% | Flea Survival [12]: 100% | Oviposition Control [12]: 13.9% | Oviposition Control (0.39 ng/mL in blood, arithmetic mean of exposure days): 16.1% | Flea Survival (0.39 ng/mL in blood, exposure day 2): 100% | Flea Survival [13]: 100% | Oviposition Control [13]: 6.72% | Flea Survival [14]: 100% | Oviposition Control [14]: 22.8% | Flea Survival [15]: 100% | Oviposition Control [15]: 23.2% | Flea Survival [16]: 100% | Oviposition Control [16]: 23.8% | Flea Survival [17]: 100% | Oviposition Control [17]: 0% | Flea Survival [18]: 98.7% | Oviposition Control [18]: 20.3% | Oviposition Control (0.78 ng/mL in blood, arithmetic mean of exposure days): 9.4% | Flea Survival (0.78 ng/mL in blood, exposure day 2): 100% | Flea Survival [19]: 100% | Oviposition Control [19]: 8.7% | Flea Survival [20]: 100% | Oviposition Control [20]: 3.0% | Flea Survival [21]: 100% | Oviposition Control [21]: 13.8% | Flea Survival [22]: 100% | Oviposition Control [22]: 12.5% | Flea Survival [23]: 100% | Oviposition Control [23]: 0% | Flea Survival [24]: 100% | Oviposition Control [24]: 18.5% | Oviposition Control (1.56 ng/mL in blood, arithmetic mean of exposure days): 21.1% | Flea Survival (1.56 ng/mL in blood, exposure day 2): 100% | Flea Survival [25]: 100% | Oviposition Control [25]: 0% | Flea Survival [26]: 99.4% | Oviposition Control [26]: 0% | Flea Survival [27]: 99.1% | Oviposition Control [27]: 17.3% | Flea Survival [28]: 93.9% | Oviposition Control [28]: 49.8% | Flea Survival [29]: 92.9% | Oviposition Control [29]: 30.1% | Flea Survival [30]: 90.3% | Oviposition Control [30]: 29.2% | Oviposition Control (3.13 ng/mL in blood, arithmetic mean of exposure days): 50.5% | Flea Survival (3.13 ng/mL in blood, exposure day 2): 100% | Flea Survival [31]: 100% | Oviposition Control [31]: 32.0% | Flea Survival [32]: 98.7% | Oviposition Control [32]: 35.7% | Flea Survival [33]: 97.8% | Oviposition Control [33]: 43.1% | Flea Survival [34]: 83.1% | Oviposition Control [34]: 70.5% | Flea Survival [35]: 79.5% | Oviposition Control [35]: 59.9% | Flea Survival [36]: 78.8% | Oviposition Control [36]: 62.0% | Oviposition Control (6.25 ng/mL in blood, arithmetic mean of exposure days): 80.6% | Flea Survival (6.25 ng/mL in blood, exposure day 2): 100% | Flea Survival [37]: 100% | Oviposition Control [37]: 82.6% | Flea Survival [38]: 97.5% | Oviposition Control [38]: 85.9% | Flea Survival [39]: 92.8% | Oviposition Control [39]: 81.3% | Flea Survival [40]: 85.0% | Oviposition Control [40]: 79.9% | Flea Survival [41]: 73.1% | Oviposition Control [41]: 67.5% | Flea Survival [42]: 69.7% | Oviposition Control [42]: 86.4% | Oviposition Control (12.5 ng/mL in blood, arithmetic mean of exposure days): 99.6% | Flea Survival (12.5 ng/mL in blood, exposure day 2): 100% | Flea Survival [43]: 100% | Oviposition Control [43]: 99.6% | Flea Survival [44]: 67.5% | Oviposition Control [44]: 100% | Flea Survival [45]: 38.9% | Oviposition Control [45]: 100% | Flea Survival [46]: 21.7% | Oviposition Control [46]: 98.9% | Flea Survival [47]: 17.9% | Oviposition Control [47]: 99.1% | Flea Survival [48]: 12.3% | Oviposition Control [48]: 100% | Oviposition Control (25.0 ng/mL in blood, arithmetic mean of exposure days): 100% | Flea Survival (25.0 ng/mL in blood, exposure day 2): 90.6% | Flea Survival [49]: 67.5% | Oviposition Control [49]: 100% | Flea Survival [50]: 31.9% | Oviposition Control [50]: 100% | Flea Survival [51]: 11.3% | Oviposition Control [51]: 100% | Flea Survival (25.0 ng/mL in blood, exposure day 8): 0% | Flea Survival (25.0 ng/mL in blood, exposure day 9): 0% | Flea Survival (25.0 ng/mL in blood, exposure day 10): 0% | Oviposition Control (50.0 ng/mL in blood, arithmetic mean of exposure days): 100% | Flea Survival (50.0 ng/mL in blood, exposure day 2): 78.1% | Flea Survival [52]: 20.0% | Oviposition Control [52]: 100% | Flea Survival [53]: 8.7% | Oviposition Control [53]: 100% | Flea Survival [54]: 1.2% | Oviposition Control [54]: 100% | Flea Survival (50.0 ng/mL in blood, exposure day 8): 0% | Flea Survival (50.0 ng/mL in blood, exposure day 9): 0% | Flea Survival (50.0 ng/mL in blood, exposure day 10): 0% | Pupal Development Control (arithmetic mean of exposure days): 4.0% | Larval Emergence (exposure day 3): yes | Pupal Development Control (exposure day 3): 9.1% | Larval Emergence (exposure day 4): yes | Pupal Development Control (exposure day 4): 4.5% | Larval Emergence (exposure day 5): yes | Pupal Development Control (exposure day 5): 1.4% | Larval Emergence (exposure day 8): yes
